In article PMC9585728, “Antiviral activity and mechanism of the antifungal drug, anidulafungin, suggesting its potential to promote treatment of viral diseases” (BMC Medicine, 2022):
Several values for one entry are separate records, joined by “and”; a condition that tells them apart may be missing. Equal values may be shown once. Entries after “also recorded” stand apart in the source; their conditions may differ. Starred links: 1 amine or outer side, 2 acyl side, 3 side chain; linkers in the order of their positions; H or OH if unused. Positions of bridges follow the written chain, without caps; N, C: chain ends. Non-standard residues stand in square brackets, D forms with d. Residues, ends and D or L forms follow the SMILES beside them. *: point of attachment. hTyr(3S-OH,4S-OH,3'-OSO3H) = N[C@H](C(=O)O)[C@H](O)[C@@H](O)c1ccc(O)c(OS(=O)(=O)O)c1; pTerphenylCO(4''-OnC5H11) = CCCCCOc1ccc(-c2ccc(-c3ccc(C(=O)*)cc3)cc2)cc1; Orn(4R-OH,5R-OH) = O=C([C@H](C[C@@H](O)[C@@H](O)N[*:3])N[*:1])[*:2]; hTyr(3S-OH,4S-OH) = N[C@H](C(=O)O)[C@H](O)[C@@H](O)c1ccc(O)cc1; Pro(3S-OH,4S-Me) = C[C@H]1CN[C@H](C(=O)O)[C@H]1O; X1 = CCCCCOc1ccc(-c2cc(-c3ccc(C(=O)*)cc3)no2)cc1; Gln(3R-OH) = NC(=O)C[C@@H](O)[C@H](N)C(=O)O; Hyp = O=C(O)[C@@H]1C[C@@H](O)CN1

How the values were obtained:
SFTSV [1] = system: SFTSV; set-up: species or system A129 mice; settings: mouse, in vivo
GTV = assay: microbe, parasite or virus in culture; format: cell-based, Guertu virus
in vitro = settings: African green monkey
SFTSV [2] = format: cell-based, severe fever with thrombocytopenia syndrome virus
SFTSV [3] = assay: microbe, parasite or virus in culture; format: cell-based, severe fever with thrombocytopenia syndrome virus; settings: for IC50 / IC90: Severe fever with thrombocytopenia syndrome virus, Vero, 24 h
DENV = settings: inhibition of DENV infection; cited from earlier work
HSV-1 = assay: microbe, parasite or virus in culture; format: cell-based, herpes simplex virus 1
SARS-CoV-2 = assay: microbe, parasite or virus in culture; format: cell-based, severe acute respiratory syndrome coronavirus 2
ZIKV = assay: microbe, parasite or virus in culture; format: cell-based, Zika virus
HRTV = assay: microbe, parasite or virus in culture; format: cell-based, Heartland virus
SFTSV [4] = format: cell-based, severe fever with thrombocytopenia syndrome virus; settings: pH 5
SFTSV [5] = format: cell-based, severe fever with thrombocytopenia syndrome virus; remark: listed apart in the source
CCHFV = assay: microbe, parasite or virus in culture; format: cell-based, Crimean-Congo hemorrhagic fever virus
SFTSV [6] = format: cell-based, severe fever with thrombocytopenia syndrome virus; remark: listed apart in the source
SFTSV [7] = format: cell-based, severe fever with thrombocytopenia syndrome virus; remark: listed apart in the source
SFTSV [8] = assay: microbe, parasite or virus in culture; format: cell-based, severe fever with thrombocytopenia syndrome virus
[9] = Severe acute respiratory syndrome coronavirus 2, Vero
[10] = Orthonairovirus haemorrhagiae, Vero

Structure (SMILES): CCCCCOc1ccc(-c2ccc(-c3ccc(C(=O)N[C@H]4C[C@@H](O)[C@@H](O)NC(=O)[C@@H]5[C@@H](O)[C@@H](C)CN5C(=O)[C@H]([C@@H](C)O)NC(=O)[C@H]([C@H](O)[C@@H](O)c5ccc(O)cc5)NC(=O)[C@@H]5C[C@@H](O)CN5C(=O)[C@H]([C@@H](C)O)NC4=O)cc3)cc2)cc1 [Anidulafungin, anidulafungin] ({pTerphenylCO(4''-OnC5H11)}-[Orn(4R-OH,5R-OH)]T[Hyp][hTyr(3S-OH,4S-OH)]T[Pro(3S-OH,4S-Me)]; lactam 1-C)
- PLT (median, IQR) (SFTSV [1]): 1054.5 (993.25, 1094) ×10^9/L and 950 (494.5, 1062.75) ×10^9/L and 1141 (1050, 1191) ×10^9/L
- WBC (median, IQR) (SFTSV [1]): 4.75 (4.35, 5.465) ×10^9/L and 4.72 (4.31, 6.195) ×10^9/L and 5.76 (5.28, 6.04) ×10^9/L
- body weight (SFTSV [1]): maintained; also recorded: slight decrease
- clinical signs of illness onset (SFTSV [1]): did not show typical clinical signs of illness onset
- histopathological damage in the lung, H&E (SFTSV [1]): significantly ameliorated
- kidney lesions (renal tubulointerstitial hemorrhaging, edemas), H&E (SFTSV [1]): slight
- liver lesion (ballooning degeneration of hepatocytes), H&E (SFTSV [1]): significantly attenuated
- survival rate (SFTSV [1]): 66.7% and 50.0%
- SI (GTV): 7.53
- IC50 (GTV; Guertu virus, Vero): 5.54 µM
- IC90 (GTV; Guertu virus, Vero): 9.62 µM
- CC50 (in vitro): 41.7 µM
- efficacy of virus binding to cells versus vehicle (SFTSV [2]): did not have a significant difference
- SI (SFTSV [3]): 13.80
- IC50 (SFTSV [3]): 3.02 µM
- IC90 (SFTSV [3]): 12.4 µM
- IC50 (DENV): 3.24 µM
- SI (HSV-1): 6.12
- IC50 (HSV-1; Human alphaherpesvirus 1, Vero): 6.81 µM
- IC90 (HSV-1; Human alphaherpesvirus 1, Vero): 9.12 µM
- SI (SARS-CoV-2): 7.59
- IC50 (SARS-CoV-2; [9]): 5.49 µM
- IC90 (SARS-CoV-2; [9]): 8.55 µM
- SI (ZIKV): 9.54
- IC50 (ZIKV; Zika virus, Vero): 4.37 µM
- IC90 (ZIKV; Zika virus, Vero): 6.44 µM
- SI (HRTV): 8.35
- IC50 (HRTV; Heartland virus, Vero): 4.99 µM
- IC90 (HRTV; Heartland virus, Vero): 9.29 µM
- number and size of syncytia (fusion ability) (SFTSV [4]): decreased
- number of intracellular viral RNA copies (virus internalization) (SFTSV [5]): significantly decreased
- SI (CCHFV): 3.86
- IC50 (CCHFV; [10]): 10.8 µM
- IC90 (CCHFV; [10]): 24.2 µM
- reduction of intracellular viral RNA copies relative to the control (SFTSV [6]): over 10 times
- suppression of the entry of SFTSV strain HBMC5 (SFTSV [7]): as efficiently as the strain WCH

Structure (SMILES): O=C1C(O)=C([C@H]2CC[C@H](c3ccc(Cl)cc3)CC2)C(=O)c2ccccc21 [Atovaqone, Atovaquone]
- CC50 (in vitro): > 100 µM
- SI (SFTSV [3]): >10
- IC50 (SFTSV [3]): 5.06 µM
- IC90 (SFTSV [3]): 10.1 µM

Structure (SMILES): CN(C)CCCN1c2ccccc2Sc2ccc(Cl)cc21 [CPZ, chlorpromazine]
- inhibition at 35 µM (SFTSV [8]; Severe fever with thrombocytopenia syndrome virus, Vero, read-out: mean inhibition rate of SFTSV infection): 46.1%

Structure (SMILES): Oc1ccc2ccccc2c1SSc1c(O)ccc2ccccc12 [IPA3, p21-activated kinase inhibitor III]
- mean inhibition rate of SFTSV infection (SFTSV [8]): 43.22%

Structure (SMILES): CCCCCOc1ccc(-c2cc(-c3ccc(C(=O)N[C@H]4C[C@@H](O)[C@@H](O)NC(=O)[C@@H]5[C@@H](O)[C@@H](C)CN5C(=O)[C@H]([C@H](O)CC(N)=O)NC(=O)[C@H]([C@H](O)[C@@H](O)c5ccc(O)c(OS(=O)(=O)O)c5)NC(=O)[C@@H]5C[C@@H](O)CN5C(=O)[C@H]([C@@H](C)O)NC4=O)cc3)no2)cc1 [Micafungin, micafungin] (X1-[Orn(4R-OH,5R-OH)]T[Hyp][hTyr(3S-OH,4S-OH,3'-OSO3H)][Gln(3R-OH)][Pro(3S-OH,4S-Me)]; lactam 1-C)
- IC50 (DENV): 10.2 µM
- inhibitory effect on SFTSV infection during the entry process (SFTSV [7]): less effective than that exerted by anidulafungin

Structure (SMILES): COc1c(C)c2c(c(O)c1C/C=C(\C)CCC(=O)OCCN1CCOCC1)C(=O)OC2 [Mycophenolate mofetil]
- CC50 (in vitro): > 100 µM
- SI (SFTSV [3]): >10
- IC50 (SFTSV [3]): 0.57 µM
- IC90 (SFTSV [3]): 1.52 µM

Structure (SMILES): COc1c(C)c2c(c(O)c1C/C=C(\C)CCC(=O)O)C(=O)OC2 [Mycophenolic acid]
- CC50 (in vitro): > 100 µM
- SI (SFTSV [3]): >10
- IC50 (SFTSV [3]): 0.47 µM
- IC90 (SFTSV [3]): 4.75 µM

Structure (SMILES): CC(=O)Oc1ccccc1C(=O)Nc1ncc([N+](=O)[O-])s1 [Nitazoxanide]
- CC50 (in vitro): > 100 µM
- IC50 (SFTSV [3]): 11.1 µM
- IC90 (SFTSV [3]): 25.3 µM

Structure (SMILES): COc1cccc(-c2ccc(NC(=O)C3=C(C(=O)O)CCC3)c(F)c2)c1 [Vidofludimus]
- CC50 (in vitro): > 100 µM
- SI (SFTSV [3]): >10
- IC50 (SFTSV [3]): 6.07 µM
- IC90 (SFTSV [3]): 14.6 µM

Structure (SMILES): CC[C@H](C)C[C@H](C)CCCCCCCCC(=O)N[C@H]1C[C@@H](O)[C@@H](NCCN)NC(=O)[C@@H]2[C@@H](O)CCN2C(=O)[C@H]([C@H](O)CCN)NC(=O)[C@H]([C@H](O)[C@@H](O)c2ccc(O)cc2)NC(=O)[C@@H]2C[C@@H](O)CN2C(=O)[C@H]([C@@H](C)O)NC1=O [caspofungin]
- IC50 (DENV): 20.8 µM
- inhibitory effect on SFTSV infection during the entry process (SFTSV [7]): limited effect

Structure (SMILES): C[C@@H]1[C@H](O)[C@@H](C)/C=C/C=C/CC/C=C/C=C/C=C/C=C/C(O[C@H]2O[C@H](C)[C@@H](O)[C@H](N)[C@@H]2O)CC2O[C@](O)(CC(O)C(O)CCC(O)CC(O)CC(O)CC(=O)O[C@H]1C)CC(O)C2C(=O)O (some centres unmarked) [nystatin]
- mean inhibition rate of SFTSV infection (SFTSV [8]): 8.67%
